Laboratory results from patent publication US5552267A, “Solution for prolonged organ preservation” (priority 1994, dated 1996).
“Also recorded” adds a separate entry of the source.

How the values were obtained:
HUVECs / platelets = test: NO by inhibition of thrombin-induced platelet aggregation and serotonin release by ECs; format: cell-based, human; details: normoxic ECs (hemoglobin); hypoxia 16 h + reoxygenated ECs (SOD, BHT)
Protocol: Radiolabelled serotonin (^14 C-5-hydroxytryptamine, Amersham, Arlington Heights, Ill.) was incorporated into the platelets by adding 0.5 μCi during the blood collection process. Inhibition of cyclooxygenase was confirmed by the absence of aggregation to 1 mM sodium arachidonate.
HUVECs from fresh human umbilical veins were isolated and grown according to previously published methods^12, and used between the 3rd and 4th passages. HUVEC cyclooxygenase was inhibited with acetylsalicylic acid (1 mmol/L in M199 medium, incubated for 30 minutes at 37° C., and then washed twice with M199 to remove residual acetylsalicylic acid) immediately prior to collagenase digestion. […] An hypoxic environment was administered by placing cells in a specially designed airtight chamber (Coy Laboratory Products, Ann Arbor, Mich.) with a normobaric environment comprised of 90% N2, 5% H2, 5% CO2, and 0% O2. pO2 s of 15 Torr in the culture medium were achieved by the use of a palladium catalyst in the chamber to reduce any residual O2. All manipulations, including centrifugation and washing of cells (up to the final aggregometry, or reoxygenation phases as described), were performed within the hypoxia chamber. Reoxygenation was accomplished by removing an aliquot of washed and counted HUVECs in suspension to room air for the indicated duration.
Platelets were challenged with graded doses of α-thrombin (Sigma) to determine the concentration that caused maximal platelet aggregation (0.3 u/mL in all cases), and this dose was used for all further studies. […] Interference with light absorption was measured for 3 minutes to obtain platelet aggregation curves, after which the cuvette contents were placed on ice, centrifuged at 5,000 rpm for 5 minutes at 4° C., and 200 μL of supernatant was recovered and counted in a liquid scintillation counter to quantify ^14 C-serotonin release. […] Results are expressed as both aggregometry curves and as % maximal serotonin release as defined by thrombin challenge in the absence of ECs.

heart [1] = test: heterotopic rat cardiac transplant, cAMP series, graft survival/score; format: in vivo, rat (male Sprague-Dawley); details: 12 h in LR
From the text: Preservation solutions included lactated Ringer's (LR) solution Baxter, Edison, N.J.), or LR supplemented with rolipram ZK 62 711, Schering AG, Berlin, Germany), indolidan LY195115, Lilly Research Laboratories, Indianapolis, Ind.), sodium butyrate, 8-bromoadenosine, 8-bromoadenosine 3',5'monophosphate (8-Br-cAMP; Sigma Chemical Co., St. Louis, Mo.), the Rp -isomer of adenosine 3',5'monophosphorothioate (Rp -cAMPS; Biolog, La Jolla, Calif.), the Sp isomer of adenosine 3',5'monophosphorothioate (Sp -cAMPS; Biolog), and N^6,O^2' -dibutyryl adenosine 3',5'monophosphate sodium (db-cAMP; Aldrich, Milwaukee, Wis.). Components were combined within 4 hrs of donor cardiectomy, and preservation solutions were kept at 4° C. University of Wisconsin solution (UW)(2-4 was purchased from Dupont (Wilmington, Del.).
Donor Cardiectomy. Male Sprague-Dawley rats (350-450 grams, Camm Research, Wayne, N.J.) were anesthetized, heparinized (1000 units of heparin given intravenously), and the donor heart removed in the following manner; a midline incision was performed, followed by rapid cardioplegic arrest with 5 ml of cold (4° C.), high potassium solution (NACl, 0.9%, and KCl, 40 mEq/L). The heart was maintained at 4° C. throughout the harvest procedure by the application of a cold saline soaked gauze over its surface. […] The aortic root was flushed with ≈15 ml of the cold preservation solution until the coronary arteries became visibly clear, and the heart remained in the cold storage solution for the indicated duration until the time of transplantation.
Heterotopic Transplant. The same breed/size of rat was used, and similarly anesthetized, but not given heparin. A midline abdominal incision was made, and the infrarenal aorta and vena cava were occluded with a side-biting vascular clamp and longitudinal incisions were made in each vessel. The donor heart was removed from the preservation solution and kept moist with saline-soaked gauze. […] Blood flow was restored to the graft (by removal of the clamp) exactly one hour after removal from the cold preservation solution. […] Ten minutes after removal of the cross-clamp, an electrocardiogram was taken (Grass Polygraph, Quincy, Mass.) and the heart was judged by the same blinded investigators throughout based on the presence/absence of regular contractions and a transplant score (0-5, worst-best, respectively) employing the following criteria: contraction (poor=0, average=1, vigorous=2), tissue turgor (hard=0, average=1, soft=2), and color (dusky=0, pink=1). […] The heterotopic cardiac transplant experiments performed in these studies were done by a single surgeon after establishment of this model and acquisition of surgical expertise, with control and experimental groups interspersed throughout the study period to prevent a time-dependent bias pertaining to surgical skills.
Statistics. Graft survival data and transplant scores were analyzed using the Kruskal-Wallis non-parametric analysis of variance (38). Comparisons of individual treatments were performed using the procedure described by Dunn (39). In addition, the effect of db-cAMP on the time-course of graft failure was quantified by multivariate logistic regression. Graft myeloperoxidase data, microsphere data, and cAMP/adenylate cyclase/phosphodiesterase data from experiments with cultured vascular smooth muscle cells were analyzed by t-tests when 2 treatments were performed or by analysis of variance when 3 or more treatments were performed. In the latter case, post-hoc comparison of treatment groups were tested using Tukey's procedure. Values are expressed as means ±SEM, with a p <0.05 considered statistically significant.

[2] = test system: cAMP-dependent protein kinase; details: cited from earlier work
[3] = test system: cGMP-dependent protein kinase; details: cited from earlier work
heart [4] = details: in vivo; cited from earlier work
heart [5] = test: heterotopic rat cardiac transplant, nitric oxide series, graft survival/score; format: in vivo, rat (male Sprague-Dawley); details: 12 h in LR
From the text: Male Sprague-Dawley rats (350 grams, Camm Research, Wayne, N.J.) were used, and harvest, preservation, and transplantation procedures performed as described^8. Preservation solutions included lactated Ringer's (LR) solution (Baxter, Edison, N.J.), or LR supplemented with nitroglycerin (DuPont, Wilmington, Del.), sodium nitroprusside (Roche Laboratories, Nutley, N.J.), N^G -monomethyl-L-arginine (L-NMMA; Chembiochem, Salt Lake City, Utah), L-arginine (Sigma Chemical Co., St. Louis, Mo.), or 8-bromoguanosine3',5'monophosphate (8-Br-cGMP; Sigma). Components were combined within 4 hrs of donor cardiectomy, and preservation solutions were kept at 4° C. All of these solutions were at the pH of LR (6.6). University of Wisconsin solution (UW) was purchased from Dupont. […] Ten minutes after removal of the cross-clamp, an electrocardiogram was taken (Grass Polygraph, Quincy, Mass.) and the heart was judged by the same blinded investigators throughout based on the presence/absence of regular contractions and a transplant score (0-5, worst-best, respectively) employing the following criteria: contraction (poor=0, average=1, vigorous=2), tissue turgor (hard=0, average=1, soft=2), and color (dusky=0, pink=1).
Graft survival data was analyzed by contingency analysis (chi-square). Transplant scores, microsphere perfusion, myeloperoxidase, NO synthase, and platelet serotonin release data were analyzed using ANOVA for unpaired variables with the Tukey test used to discriminate significant differences between group means. Values are expressed as means ±SEM, with a p<0.05 considered statistically significant.

[6] = test system: cardiac graft vasculature; test: perfusion of donor grafts by microspheres, nitric oxide series; format: in vivo, rat; details: 12 h preservation in LR
Protocol: Ten minutes after restoration of blood flow, 0.5 ml of 10 μm diameter microspheres (10^6 /ml) (E-Z Trac, Los Angeles, Calif.) was injected into the donor aortic root. Deposition of microspheres in ventricular tissue was assessed following alkaline hydrolysis, washing, and counting of microspheres as described^8, with results expressed as number of spheres per (40×) field per gram of ventricle. A minimum of ten fields were counted and the mean ±SEM is reported.

lung = test: orthotopic rat left lung transplantation, cGMP series (hemodynamics, oxygenation, recipient survival); format: in vivo, rat (male Lewis); details: 6 h in EC
Protocol: Orthotopic rat left lung transplantation was accomplished using inbred male Lewis rats (250-300 gms), using a modification of a previously described technique^29. The donor rat was anesthetized and heparinized (500 U intravenously), and endotracheal intubation was performed by inserting a 16 gauge angiocatheter into the trachea using blunt cervical dissection, after which the rat was ventilated with room air at a constant rate (100 breaths/minute) and tidal volume (2.5 ml), using a Harvard rodent ventilator. […] The pulmonary artery (PA) and pulmonary vein (PV) were divided, the bronchus ligated with the lung partially inflated and then divided, and the lung removed. The vascular stumps were each pulled through a small plastic cylinder, and a lip of vessel was turned back around the edge and secured in place with a suture to form a "cuff." A small plastic cylinder was inserted into the bronchial stump and secured, and the lung was then wrapped in gauze and submerged in cold preservation solution for the desired interval.
The recipient rat (gender/size/strain-matched) was similarly anesthetized and intubated (ventilated with 100% oxygen), but not heparinized. A left thoracotomy was performed, the hilum was dissected, and the left bronchus, PA, and PV were isolated, cross-clamped, divided and the native lung was removed from the field. The PA and PV stumps were rinsed with heparinized saline to remove any clot. The donor lung was brought onto the surgical field, and the cylinder (bronchus) and cuffs (PA and PV) were connected rapidly to their respective structures with a simple staying suture. This cuff technique permitted rapid approximation of donor and recipient tissues with no contact of a foreign substance with the luminal vascular surface. The hilar cross-clamp was released, re-establishing blood flow, and the bronchus tie was removed, enabling gas exchange. A snare was then passed around the right PA, and a Millar catheter (2F; Millar Instruments,Houston, Tex.) was introduced through a small hole (surrounded by a pursestring) into the main PA; similarly, a Millar catheter was introduced into the left atrium (LA). A flow probe (Transonics, Ithaca, N.Y.) was then placed around the main PA. Arterial blood gas sampling performed via the left femoral artery.
Online hemodynamic monitoring was accomplished using MacLab and a Macintosh IIci computer. The hemodynamic parameters that were measured included PA pressure (mm Hg), blood flow (ml/min), LA pressure (mm Hg), as well as arterial oxygen tension (mm Hg) during inspiration of 100% oxygen; pO2 was analyzed with a model ABL-2 dissolved gas analyzer (Radiometer, Copenhagen, Denmark). Pulmonary vascular resistances (PVRs) were calculated as [mean PA pressure-LA pressure]/PA flow. The native lung supported the recipient during the period of warm ischemia (the period during which the donor lung was removed from cold preservation until the time of reperfusion, <10 min. in all instances), but immediately following rapid hemodynamic instrumentation and acquisition of baseline measurements, the native (right) PA was then ligated, and serial measurements (representative solely of the transplanted lung) were taken every five minutes for 30 minutes. Because the native lung was effectively removed from the circulation by ligation of the right PA, these measurements represent function of the transplanted lung. Recipient death was identified by the cessation of cardiac mechanical activity observed through the thoracotomy.
Preservation solutions were freshly made and coded by a technician not otherwise involved in the experiments, according to a general plan which included both control and experimental groups. […]

Cc1cc(C(C)(C)C)c(O)c(C(C)(C)C)c1 [BHT, butylated hydroxytoluene]
effect on NO / platelet inhibition by ECs (HUVECs / platelets): restore NO levels

Nc1ncnc2c1ncn2[C@@H]1O[C@@H]2CO[P@@](O)(=S)O[C@H]2[C@H]1O [Rp -cAMPS, Rp isomer of adenosine 3'5'monophosphorothioate]
effect on cardiac preservation (heart [1]): prevented preservation enhancement induced by 8-bromo-cAMP; also recorded: abolished the salutory effect of 8-Br-cAMP on preservation | effect on cAMP-dependent protein kinase [2]: nonhydrolyzable competitive PKA antagonist

Nc1ncnc2c1ncn2[C@@H]1O[C@@H]2CO[P@](O)(=S)O[C@H]2[C@H]1O [Sp -cAMPS, Sp isomer of adenosine 3'5'monophosphorothioate]
effect on cardiac preservation (heart [1]): enhanced preservation | effect on cGMP-dependent protein kinase [3]: antagonist of the cGMP-dependent protein kinase | effect on cAMP-dependent protein kinase [2]: PKA agonist

N=C(N)NCCC[C@H](N)C(=O)O [L-Arg, L-arginine]
effect in cardiac ischemia models (heart [4]): improve vascular function and outcome | effect on graft preservation (words) (heart [5]): enhanced preservation | effect on graft preservation (words) (heart [5]; listed as L-arginine): enhanced graft survival | graft blood flow [6]: enhanced blood flow

hemoglobin
effect on NO / platelet inhibition by ECs (HUVECs / platelets): blocked

Nc1nc2c(nc(Sc3ccc(Cl)cc3)n2[C@@H]2O[C@@H]3CO[P@@](O)(=S)O[C@H]3[C@H]2O)c(=O)[nH]1 [Rp-8-pCPT-cGMPS, R isomer of 8-(4-chlorophenylthio)guanosine-3'5'-cyclic monophosphorothioate]
Ki ([3]; cGMP-dependent protein kinase, personal communication): 0.5 µM | Ki ([2]; cAMP-dependent protein kinase, personal communication): 8.3 µM | effect on lung preservation (lung): block the beneficial effects of 8-Br-cGMP
